Reference: paper PMC2577155 (The Journal of neuroscience : the official journal of the …, 2008)
Changes are numbered by the printed parent chain. Where two headings read alike, the source gives them in different places.

How the values were obtained:
rM1 [1] = molecular target: T1, rM1 (Rattus norvegicus, UniProt P08482); details: atropine 1-10 nM (CCh) or 0.3-3.0 nM (TBPB)
T1 sequence (P08482 1-460): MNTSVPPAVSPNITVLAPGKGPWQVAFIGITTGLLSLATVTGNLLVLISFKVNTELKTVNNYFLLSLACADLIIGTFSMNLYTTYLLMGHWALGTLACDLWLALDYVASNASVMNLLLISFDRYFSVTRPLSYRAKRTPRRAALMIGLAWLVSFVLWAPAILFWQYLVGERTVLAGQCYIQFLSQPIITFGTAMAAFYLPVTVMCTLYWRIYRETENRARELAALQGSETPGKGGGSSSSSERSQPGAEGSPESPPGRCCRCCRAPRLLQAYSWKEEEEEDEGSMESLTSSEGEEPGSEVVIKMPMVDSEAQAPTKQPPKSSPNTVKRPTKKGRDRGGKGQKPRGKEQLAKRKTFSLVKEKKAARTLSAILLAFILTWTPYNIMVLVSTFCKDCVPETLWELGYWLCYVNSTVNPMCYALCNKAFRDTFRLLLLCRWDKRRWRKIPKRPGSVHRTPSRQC

Sprague-Dawley rats [2] = test: Locomotor activity when administered alone; type: in vivo, rat; details: 30-100 mg/kg sc
[3] = system: Fos-like immunoreactivity; test: Fos immunohistochemistry in rat forebrain; type: in vivo; details: 100 mg/kg sc, two hours after treatment
Sprague-Dawley rats [4] = test: Catalepsy test; type: in vivo, rat; details: sc, up to 4 h; TBPB 30-100 mg/kg
Sprague-Dawley rats [5] = test: Amphetamine-induced hyperlocomotion; type: in vivo, rat; details: significant after 10, 30 and 56.6 mg/kg sc; amphetamine 1 mg/kg sc
hM5 = molecular target: T2, hM5 (Homo sapiens, UniProt P08912); test: Calcium mobilization assay, CHO cells expressing hM5; type: cell-based; details: M5, concentrations up to 10μM
T2 sequence (P08912 1-532): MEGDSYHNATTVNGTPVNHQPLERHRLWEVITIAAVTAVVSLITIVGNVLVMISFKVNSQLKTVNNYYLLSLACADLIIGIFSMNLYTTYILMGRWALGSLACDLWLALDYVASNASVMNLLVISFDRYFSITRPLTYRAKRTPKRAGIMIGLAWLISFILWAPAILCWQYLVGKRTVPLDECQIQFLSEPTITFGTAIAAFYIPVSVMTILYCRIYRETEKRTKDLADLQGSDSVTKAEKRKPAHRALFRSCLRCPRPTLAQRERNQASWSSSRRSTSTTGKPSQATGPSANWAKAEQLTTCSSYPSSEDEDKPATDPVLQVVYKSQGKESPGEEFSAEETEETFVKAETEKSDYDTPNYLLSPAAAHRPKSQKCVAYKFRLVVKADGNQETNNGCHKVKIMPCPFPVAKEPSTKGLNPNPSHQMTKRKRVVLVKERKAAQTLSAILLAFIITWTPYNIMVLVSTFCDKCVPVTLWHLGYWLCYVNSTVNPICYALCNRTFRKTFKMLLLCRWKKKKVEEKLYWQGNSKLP

hM2 = molecular target: T3, hM2 (Homo sapiens, UniProt P08172); test: Calcium mobilization assay, CHO cells expressing hM2-Gqi5; type: cell-based; details: M2, concentrations up to 10μM
T3 sequence (P08172 1-466): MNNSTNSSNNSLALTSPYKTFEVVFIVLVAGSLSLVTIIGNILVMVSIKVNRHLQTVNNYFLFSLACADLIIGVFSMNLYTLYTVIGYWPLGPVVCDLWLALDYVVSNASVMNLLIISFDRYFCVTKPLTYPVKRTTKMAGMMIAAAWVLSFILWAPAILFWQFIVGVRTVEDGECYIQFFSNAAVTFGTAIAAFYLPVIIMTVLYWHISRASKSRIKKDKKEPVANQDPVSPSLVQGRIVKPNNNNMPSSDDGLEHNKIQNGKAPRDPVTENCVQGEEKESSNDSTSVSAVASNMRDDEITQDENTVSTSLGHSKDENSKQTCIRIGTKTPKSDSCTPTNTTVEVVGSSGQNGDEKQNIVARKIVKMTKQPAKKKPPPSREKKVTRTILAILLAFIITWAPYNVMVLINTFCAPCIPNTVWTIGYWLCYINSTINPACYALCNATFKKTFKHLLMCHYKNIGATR

[6] = system: amyloid precursor protein (APP) processing; type: cell-based; details: eight hours
hM3 = hM3 (Homo sapiens, UniProt P20309); test: Calcium mobilization assay, CHO cells expressing hM3; type: cell-based; details: M3, concentrations up to 10μM
rM1 [7] = molecular target: T1, rM1; details: wt rM1
rats = test: Modified Irwin neurological test battery; type: in vivo, rat; details: 100 mg/kg
rM4 = molecular target: T4, rM4 (Rattus norvegicus, UniProt P08485); test: Calcium mobilization assay, CHO-K1 cells expressing rM4-Gqi5; type: cell-based; details: M4, concentrations up to 10μM
T4 sequence (P08485 1-478): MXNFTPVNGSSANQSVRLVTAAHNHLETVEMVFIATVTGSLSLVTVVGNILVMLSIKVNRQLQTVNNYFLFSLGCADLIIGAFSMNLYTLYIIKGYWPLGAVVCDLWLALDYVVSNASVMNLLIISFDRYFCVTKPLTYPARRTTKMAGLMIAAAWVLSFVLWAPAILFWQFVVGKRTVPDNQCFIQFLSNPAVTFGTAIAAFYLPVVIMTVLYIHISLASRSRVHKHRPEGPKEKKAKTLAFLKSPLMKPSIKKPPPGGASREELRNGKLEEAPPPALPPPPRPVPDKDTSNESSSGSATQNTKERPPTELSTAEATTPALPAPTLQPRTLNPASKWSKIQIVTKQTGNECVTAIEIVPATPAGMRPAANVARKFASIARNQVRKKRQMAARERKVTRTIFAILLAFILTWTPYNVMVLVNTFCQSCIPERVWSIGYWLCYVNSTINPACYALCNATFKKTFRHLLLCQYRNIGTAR

Aβ40 = type: cell-based; details: conditioned media, ELISA
D2 receptors = D2 receptors (Homo sapiens, UniProt P14416); test: D2 receptor affinity, NIMH Psychoactive Drug Screening Program; type: binding; details: D2, PDSP accession number 3156
Sprague-Dawley rats [8] = details: ref Shannon et al., 2000; cited from earlier work
rM1 Y381A = molecular target: T5, rM1 Y381A (Rattus norvegicus, UniProt P08482, Y381A); details: ref Sur et al., 2003; cited from earlier work
T5 sequence (P08482 1-460 Y381A): T1 sequence (P08482 1-460) with Y381A

Chain of hM3 (P20309 whole entry): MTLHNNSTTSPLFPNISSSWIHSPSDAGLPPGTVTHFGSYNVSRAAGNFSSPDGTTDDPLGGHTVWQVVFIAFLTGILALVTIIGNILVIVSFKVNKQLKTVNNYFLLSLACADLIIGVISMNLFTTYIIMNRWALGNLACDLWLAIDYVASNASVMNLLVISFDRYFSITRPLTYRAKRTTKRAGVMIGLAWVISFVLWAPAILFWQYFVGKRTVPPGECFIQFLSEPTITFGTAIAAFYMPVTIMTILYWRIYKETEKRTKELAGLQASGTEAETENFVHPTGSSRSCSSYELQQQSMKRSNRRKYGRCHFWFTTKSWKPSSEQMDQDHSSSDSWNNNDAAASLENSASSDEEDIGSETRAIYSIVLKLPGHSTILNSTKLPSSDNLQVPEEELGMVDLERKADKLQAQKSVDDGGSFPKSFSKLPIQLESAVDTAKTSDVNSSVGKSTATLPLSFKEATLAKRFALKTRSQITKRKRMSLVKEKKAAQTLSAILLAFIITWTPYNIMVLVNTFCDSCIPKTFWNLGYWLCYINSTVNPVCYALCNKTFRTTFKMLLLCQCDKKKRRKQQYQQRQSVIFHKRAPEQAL
Chain of D2 receptors (P14416 whole entry): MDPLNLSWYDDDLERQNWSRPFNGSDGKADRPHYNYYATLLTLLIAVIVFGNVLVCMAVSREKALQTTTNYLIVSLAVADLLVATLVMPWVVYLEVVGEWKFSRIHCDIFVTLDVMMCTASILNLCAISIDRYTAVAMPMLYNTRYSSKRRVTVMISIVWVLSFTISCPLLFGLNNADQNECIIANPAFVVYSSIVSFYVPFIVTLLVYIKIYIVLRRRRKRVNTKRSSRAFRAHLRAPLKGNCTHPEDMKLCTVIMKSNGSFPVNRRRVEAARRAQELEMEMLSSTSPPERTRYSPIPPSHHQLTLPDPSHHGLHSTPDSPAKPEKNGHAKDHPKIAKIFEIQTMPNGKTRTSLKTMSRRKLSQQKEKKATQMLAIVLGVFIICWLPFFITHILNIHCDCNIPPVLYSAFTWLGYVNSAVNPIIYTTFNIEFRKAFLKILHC

Cc1ccccc1CN1CCC(N2CCC(n3c(=O)[nH]c4ccccc43)CC2)CC1 [TBPB]
interaction of the agonist with the orthosteric antagonist atropine (rM1 [1]): noncompetitive | effect on general locomotor output when administered alone (Sprague-Dawley rats [2]): no effect | number of Fos-like immunoreactive neurons ([3]; DStr lateral): 2.3 ± 1.3 per mm^2 | number of Fos-like immunoreactive neurons ([3]; DStr medial): 4.2 ± 1.2 per mm^2 | number of Fos-like immunoreactive neurons ([3]; NAS shell): 72.2 ± 12.6 per mm^2 | number of Fos-like immunoreactive neurons ([3]; PFC): 326.3 ± 57.1 per mm^2 | catalepsy (Sprague-Dawley rats [4]): did not induce catalepsy | effect on amphetamine-induced hyperlocomotion (Sprague-Dawley rats [5]): robust, dose-related inhibition | agonist activity (hM5): no agonist activity | agonist activity (hM2): no agonist activity | increase in shedding of APPsα compared to vehicle-treated cells ([6]; 1 μM): 58% | production of CTFα ([6]; cell lysates): increased | agonist activity (hM3): no agonist activity | response as % of the maximal response to CCh (rM1 [7]): 77.3±3.4% | core body temperature (rats): slight decrease | agonist activity (rM4): no agonist activity | Aβ40 levels, % of the vehicle control (Aβ40): 61% | Ki (D2 receptors): 1400 nM

CCCCCCOc1nsnc1C1=CCCN(C)C1 [xanomeline]
catalepsy (Sprague-Dawley rats [8]): lack of catalepsy

Clc1ccc2c(c1)N=C(N1CCNCC1)c1ccccc1N2 [N-desmethylclozapine]
activation of the M1 (Y381A) mutant (rM1 Y381A): fully activates

O=C(CCCN1CCC(O)(c2ccc(Cl)cc2)CC1)c1ccc(F)cc1 [Haloperidol, haloperidol]
catalepsy (Sprague-Dawley rats [4]): dose-and time-related increases in catalepsy

CN1CCN(C2=Nc3cc(Cl)ccc3Nc3ccccc32)CC1 [clozapine]
catalepsy (Sprague-Dawley rats [4]): failed to produce catalepsy
